Data from ChEMBL document CHEMBL1201862, “PubChem BioAssay data set” (2004).
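48-hour exposure; five concentrations; linearly interpolated endpoints. GI50 = concentration required for 50% inhibition of growth.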 The source made the active and inactive calls. Cut-off read from the data, not from the text of the source: active = GI50 up to about 1.1 µM and inactive = higher.

Key:
Assay in all cases: NCI anticancer screen, dose series, 48 h
CAKI-1 = system: CAKI-1
EKVX = system: EKVX
HOP-62 = system: HOP-62
Hs-578T = system: Hs-578T
IGROV-1 = system: IGROV-1
K562 = system: K562
KM12 = system: KM12
M14 = system: M14
NCI-H460 = system: NCI-H460
NCI/ADR-RES = system: NCI/ADR-RES
OVCAR-4 = system: OVCAR-4
OVCAR-5 = system: OVCAR-5
PC-3 = system: PC-3
SF-268 = system: SF-268
SF-539 = system: SF-539
SK-MEL-5 = system: SK-MEL-5
SK-OV-3 = system: SK-OV-3
UACC-62 = system: UACC-62
DU-145 = system: DU-145
SK-MEL-28 = system: SK-MEL-28

Measured: GI50

CC(=O)C1=C(N=[N+]=[N-])c2cccc3cccc(c23)C1=O
inactive: CAKI-1 15.3 µM | EKVX 18.2 µM | HOP-62 14.8 µM | Hs-578T 29.3 µM | IGROV-1 16.1 µM | K562 8.11 µM | KM12 21.1 µM | M14 12.7 µM | NCI-H460 21 µM | NCI/ADR-RES 25.1 µM | OVCAR-4 23.6 µM | OVCAR-5 16.5 µM | PC-3 19.8 µM | SF-268 25.2 µM | SF-539 13.3 µM | SK-MEL-5 18.7 µM | SK-OV-3 24 µM | UACC-62 15.2 µM

NC(=O)NC(CC(=O)O)C(=O)O (stereo not drawn)
inactive: CAKI-1 > 100 µM | DU-145 > 100 µM | EKVX > 100 µM | HOP-62 > 100 µM | Hs-578T > 100 µM | IGROV-1 > 100 µM | K562 > 100 µM | KM12 > 100 µM | M14 > 100 µM | NCI-H460 > 100 µM | NCI/ADR-RES > 100 µM | OVCAR-4 > 100 µM | OVCAR-5 > 100 µM | PC-3 > 100 µM | SF-268 > 100 µM | SK-MEL-28 > 100 µM | SK-MEL-5 > 100 µM | UACC-62 > 100 µM

COc1cc(NC(C)CCCN)c2nccc(C)c2c1 (stereo not drawn)
inactive: CAKI-1 21.2 µM | DU-145 48.3 µM | EKVX 55.3 µM | HOP-62 17.1 µM | Hs-578T 26.8 µM | IGROV-1 16.5 µM | KM12 17.5 µM | M14 18.9 µM | NCI-H460 22.3 µM | NCI/ADR-RES 11.6 µM | OVCAR-4 21.8 µM | OVCAR-5 96.4 µM | SF-268 24.3 µM | SF-539 17.5 µM | SK-MEL-28 19.5 µM | SK-MEL-5 25.7 µM | SK-OV-3 28.4 µM | UACC-62 19.9 µM

COc1cccc(-c2cc(O)c3cc(NC(C)=O)ccc3n2)c1
inactive: CAKI-1 62.1 µM | EKVX 53 µM | HOP-62 32.4 µM | Hs-578T 2.63 µM | IGROV-1 27.2 µM | KM12 23.5 µM | M14 27.2 µM | NCI-H460 33 µM | NCI/ADR-RES 62.8 µM | OVCAR-5 59.4 µM | PC-3 23.7 µM | SF-268 6.3 µM | SF-539 14.2 µM | SK-MEL-28 33.2 µM | SK-MEL-5 14.6 µM | SK-OV-3 > 100 µM | UACC-62 17.4 µM

COc1cc(C(=O)O[C@H]2CCC3CCC2N3C)cc(OC)c1OC (stereo partly drawn)
inactive: DU-145 > 100 µM | EKVX > 100 µM | HOP-62 > 100 µM | Hs-578T > 100 µM | K562 > 100 µM | KM12 > 100 µM | M14 > 100 µM | NCI-H460 > 100 µM | NCI/ADR-RES > 100 µM | OVCAR-4 > 100 µM | OVCAR-5 > 100 µM | SF-268 > 100 µM | SF-539 > 100 µM | SK-MEL-28 > 100 µM | SK-MEL-5 > 100 µM | SK-OV-3 > 100 µM

O=C(O)c1c(-c2ccccc2)c(=O)[nH]c2ccccc12
inactive: DU-145 > 100 µM | EKVX > 100 µM | HOP-62 > 100 µM | Hs-578T > 100 µM | IGROV-1 > 100 µM | K562 > 100 µM | KM12 > 100 µM | M14 > 100 µM | NCI-H460 > 100 µM | NCI/ADR-RES > 100 µM | OVCAR-4 > 100 µM | OVCAR-5 > 100 µM | PC-3 > 100 µM | SF-268 > 100 µM | SK-MEL-28 > 100 µM | SK-MEL-5 > 100 µM | SK-OV-3 > 100 µM | UACC-62 > 100 µM

Oc1ccc(Oc2cc3c(cc2Oc2ccc(O)cc2)-c2nc-3nc3[nH]c(nc4nc(nc5[nH]c(n2)c2cc(Oc6ccc(O)cc6)c(Oc6ccc(O)cc6)cc52)-c2cc(Oc5ccc(O)cc5)c(Oc5ccc(O)cc5)cc2-4)c2cc(Oc4ccc(O)cc4)c(Oc4ccc(O)cc4)cc32)cc1
inactive: CAKI-1 > 100 µM | EKVX > 100 µM | HOP-62 > 100 µM | Hs-578T > 100 µM | IGROV-1 > 100 µM | K562 > 100 µM | KM12 > 100 µM | M14 16.7 µM | NCI-H460 > 100 µM | NCI/ADR-RES > 100 µM | OVCAR-4 35.7 µM | OVCAR-5 85.5 µM | PC-3 > 100 µM | SF-268 > 100 µM | SF-539 > 100 µM | SK-MEL-28 > 100 µM | SK-MEL-5 60.1 µM | SK-OV-3 > 100 µM | UACC-62 76 µM

O=C(NCCC1CNc2ccccc21)OCc1ccccc1 (stereo not drawn)
inactive: CAKI-1 > 100 µM | DU-145 > 100 µM | EKVX > 100 µM | HOP-62 > 100 µM | Hs-578T > 100 µM | IGROV-1 > 100 µM | K562 > 100 µM | KM12 > 100 µM | M14 > 100 µM | NCI-H460 > 100 µM | NCI/ADR-RES > 100 µM | OVCAR-4 > 100 µM | OVCAR-5 > 100 µM | PC-3 > 100 µM | SF-268 > 100 µM | SK-MEL-28 > 100 µM | SK-MEL-5 > 100 µM | SK-OV-3 > 100 µM | UACC-62 > 100 µM
